In patent publication US9944602B2, “Piperidinone herbicides” (E. I. DU PONT DE NEMOURS AND COMPANY, priority 2014, dated 2018):

Columns and labels:
Assay type in all cases: in vivo
[1] = test system: barnyardgrass (Echinochloa crus-galli); assay: Test A preemergence barnyardgrass; conditions: 0 to 100 scale; for Barnyardgrass plant response rating: 0 no effect, 100 complete control
Outline: (§1)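 Greenhouse pot test: chemicals formulated with surfactant in non-phytotoxic solvent, sprayed on soil at seeding (pre) or on 1–2 leaf seedlings of 2–10 cm (post). Rating ~10 d later, visual, 0 = no effect to 100 = complete control, relative to untreated controls.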

rice (Oryza sativa) [2] = assay: Test B flooded paddy test rice; conditions: Table B, Flood, scale 0 to 100
Outline: (§2)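 2-leaf plants; flood 3 cm over soil; cpd into paddy water; water depth kept; greenhouse 13–15 d; visual rating vs controls.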

[3] = test system: velvetleaf (Abutilon theophrasti); assay: Test A postemergence velvetleaf; conditions: 0 to 100 scale, 0 is no effect, 100 is complete control
Text: (§3) Seeds of plant species selected from barnyardgrass (Echinochloa crus-galli), kochia (Kochia scoparia), ragweed (common ragweed, Ambrosia elatior), ryegrass, Italian (Italian ryegrass, Lolium multiflorum), crabgrass, large (large crabgrass, Digitaria sanguinalis), foxtail, giant (giant foxtail, Setaria faberii), morningglory (Ipomoea spp.), pigweed (Amaranthus retroflexus), velvetleaf (Abutilon theophrasti), wheat (Triticum aestivum), and corn (Zea mays) were planted into a blend of loam soil and sand and treated preemergence with a directed soil spray using test chemicals formulated in a non-phytotoxic solvent mixture which included a surfactant.
(§4) At the same time, plants selected from these crop and weed species and also blackgrass (Alopecurus myosuroides), and galium (catchweed bedstraw, Galium aparine) were planted in pots containing the same blend of loam soil and sand and treated with postemergence applications of test chemicals formulated in the same manner. Plants ranged in height from 2 to 10 cm and were in the one- to two-leaf stage for the postemergence treatment. Treated plants and untreated controls were maintained in a greenhouse for approximately 10 d, after which time all treated plants were compared to untreated controls and visually evaluated for injury. Plant response ratings, summarized in Table A, are based on a 0 to 100 scale where 0 is no effect and 100 is complete control. A dash (-) response means no test result.

[4] = test system: barnyardgrass (Echinochloa crus-galli); assay: Test A postemergence barnyardgrass; conditions: 0 to 100 scale, 0 is no effect, 100 is complete control
Outline: as §1

[5] = test system: morningglory (Ipomoea spp.); assay: Test A preemergence morningglory; conditions: 0 to 100 scale, 0 no effect, 100 complete control
Text: as §3, §4

[6] = test system: pigweed (Amaranthus retroflexus); assay: Test A postemergence pigweed; conditions: 0 to 100 scale, 0 is no effect, 100 is complete control
Outline: as §1

[7] = test system: ducksalad (Heteranthera limosa); assay: Test B flooded paddy test ducksalad; conditions: Table B, Flood, scale 0 to 100
Outline: as §2

[8] = test system: sedge, umbrella (small-flower umbrella sedge, Cyperus difformis); assay: Test B flooded paddy test sedge, umbrella; conditions: Table B, Flood, scale 0 to 100
Outline: as §2

[9] = test system: foxtail, giant (giant foxtail, Setaria faberii); assay: Test A preemergence foxtail, giant; conditions: 0 to 100 scale, 0 no effect, 100 complete control
Outline: as §1

[10] = test system: wheat (Triticum aestivum); assay: Test A postemergence wheat; conditions: 0 to 100 scale, 0 is no effect, 100 is complete control
Outline: as §1

[11] = test system: wheat (Triticum aestivum); assay: Test A preemergence wheat; conditions: 0 to 100 scale, 0 no effect, 100 complete control
Text: as §3, §4

[12] = test system: barnyardgrass (Echinochloa crus-galli); assay: Test B flooded paddy test barnyardgrass; conditions: Table B, Flood, scale 0 to 100
Outline: as §2

[13] = test system: crabgrass, large (large crabgrass, Digitaria sanguinalis); assay: Test A preemergence crabgrass, large; conditions: 0 to 100 scale
Text: as §3, §4

corn (Zea mays) [14] = assay: Test A postemergence corn; conditions: 0 to 100 scale, 0 is no effect, 100 is complete control
Outline: as §1

[15] = test system: crabgrass, large (large crabgrass, Digitaria sanguinalis); assay: Test A postemergence crabgrass, large; conditions: 0 to 100 scale, 0 is no effect, 100 is complete control
Text: as §3, §4

[16] = test system: velvetleaf (Abutilon theophrasti); assay: Test A preemergence velvetleaf; conditions: 0 to 100 scale, 0 no effect, 100 complete control
Text: as §3, §4

[17] = test system: morningglory (Ipomoea spp.); assay: Test A postemergence morningglory; conditions: 0 to 100 scale, 0 is no effect, 100 is complete control
Text: as §3, §4

corn (Zea mays) [18] = assay: Test A preemergence corn; conditions: 0 to 100 scale
Text: as §3, §4

[19] = test system: pigweed (Amaranthus retroflexus); assay: Test A preemergence pigweed; conditions: 0 to 100 scale, 0 no effect, 100 complete control
Outline: as §1

[20] = test system: foxtail, giant (giant foxtail, Setaria faberii); assay: Test A postemergence foxtail, giant; conditions: 0 to 100 scale, 0 is no effect, 100 is complete control
Outline: as §1

[21] = test system: ryegrass, Italian (Italian ryegrass, Lolium multiflorum); assay: Test A postemergence ryegrass, Italian; conditions: 0 to 100 scale, 0 is no effect, 100 is complete control
Outline: as §1

[22] = test system: barnyardgrass (Echinochloa crus-galli); assay: Test C flooded paddy test barnyardgrass; conditions: Table C, Flood, scale 0 to 100
Text: (§5) Plant species in the flooded paddy test consisted of rice (Oryza sativa), sedge, umbrella (small-flower umbrella sedge, Cyperus difformis), ducksalad (Heteranthera limosa), and barnyardgrass (Echinochloa crus-galli) grown to the 2-leaf stage for testing. At time of treatment, test pots were flooded to 3 cm above the soil surface, treated by application of test compounds directly to the paddy water, and then maintained at that water depth for the duration of the test. Treated plants and controls were maintained in a greenhouse for 13 to 15 d, after which time all species were compared to controls and visually evaluated. Plant response ratings, summarized in Table C, are based on a scale of 0 to 100 where 0 is no effect and 100 is complete control. A dash (-) response means no test result.

[23] = test system: sedge, umbrella (small-flower umbrella sedge, Cyperus difformis); assay: Test C flooded paddy test sedge, umbrella; conditions: Table C, Flood, scale 0 to 100
Text: as §5

rice (Oryza sativa) [24] = assay: Test C flooded paddy test rice; conditions: Table C, Flood, scale 0 to 100
Text: as §5

kochia (Kochia scoparia) [25] = assay: Test A preemergence kochia; conditions: 0 to 100 scale, 0 no effect, 100 complete control
Outline: as §1

[26] = test system: galium (catchweed bedstraw, Galium aparine); assay: Test A postemergence galium; conditions: 0 to 100 scale, 0 is no effect, 100 is complete control
Outline: as §1

[27] = test system: ducksalad (Heteranthera limosa); assay: Test C flooded paddy test ducksalad; conditions: Table C, Flood, scale 0 to 100
Text: as §5

kochia (Kochia scoparia) [28] = assay: Test A postemergence kochia; conditions: 0 to 100 scale, 0 is no effect, 100 is complete control
Outline: as §1

[29] = test system: blackgrass (Alopecurus myosuroides); assay: Test A postemergence blackgrass; conditions: 0 to 100 scale, 0 is no effect, 100 is complete control
Outline: as §1

[30] = test system: ryegrass, Italian (Italian ryegrass, Lolium multiflorum); assay: Test A preemergence ryegrass, Italian; conditions: 0 to 100 scale, 0 no effect, 100 complete control
Outline: as §1

[31] = test system: ragweed (common ragweed, Ambrosia elatior); assay: Test A postemergence ragweed; conditions: 0 to 100 scale, 0 is no effect, 100 is complete control
Outline: as §1

[32] = test system: ragweed (common ragweed, Ambrosia elatior); assay: Test A preemergence ragweed; conditions: 0 to 100 scale, 0 no effect, 100 complete control
Outline: as §1

[33] = 500 g ai/ha, 0 is no effect, 100 is complete control
[34] = 125 g ai/ha, 0 no effect, 100 complete control

O=C1NCCC(c2ccc(F)cc2)C1C(=O)Nc1ccccc1F (racemic) [Compound 5]
30: Plant response rating, Barnyardgrass [1, 33] | Plant response rating, Barnyardgrass ([4]; 500 g ai/ha) | Foxtail, Giant plant response rating ([9]; 125 g ai/ha)
50: Foxtail, Giant plant response rating ([9]; 500 g ai/ha)
90: Plant response rating, Crabgrass, Large [13, 33]
60: Crabgrass, Large plant response rating [13, 34]
0: Barnyardgrass plant response rating ([1]; 125 g ai/ha) | Plant response rating (rice (Oryza sativa) [2]; 250 g ai/ha) | Plant response rating, Velvetleaf ([3]; 125 g ai/ha) | Plant response rating, Velvetleaf ([3]; 500 g ai/ha) | Plant response rating, Barnyardgrass ([4]; 125 g ai/ha) | Morningglory plant response rating ([5]; 125 g ai/ha) | Morningglory plant response rating ([5]; 500 g ai/ha) | Plant response rating, Pigweed ([6]; 125 g ai/ha) | Plant response rating, Pigweed ([6]; 500 g ai/ha) | Plant response rating ([7]; 250 g ai/ha) | Plant response rating ([8]; 250 g ai/ha) | Plant response rating, Wheat ([10]; 125 g ai/ha) | Plant response rating, Wheat ([10]; 500 g ai/ha) | Wheat plant response rating ([11]; 125 g ai/ha) | Wheat plant response rating ([11]; 500 g ai/ha) | Plant response rating ([12]; 250 g ai/ha) | Plant response rating, Corn (corn (Zea mays) [14]; 125 g ai/ha) | Plant response rating, Corn (corn (Zea mays) [14]; 500 g ai/ha) | Plant response rating, Crabgrass, Large ([15]; 125 g ai/ha) | Plant response rating, Crabgrass, Large ([15]; 500 g ai/ha) | Velvetleaf plant response rating ([16]; 125 g ai/ha) | Velvetleaf plant response rating ([16]; 500 g ai/ha) | Plant response rating, Morningglory ([17]; 125 g ai/ha) | Plant response rating, Morningglory ([17]; 500 g ai/ha) | Corn plant response rating (corn (Zea mays) [18]; [34]) | Plant response rating, Corn (corn (Zea mays) [18]; [33]) | Pigweed plant response rating ([19]; 125 g ai/ha) | Pigweed plant response rating ([19]; 500 g ai/ha) | Plant response rating, Foxtail, Giant ([20]; 125 g ai/ha) | Plant response rating, Foxtail, Giant ([20]; 500 g ai/ha)

O=C1NCCC(c2cccc(C(F)(F)F)c2)C1C(=O)Nc1cccc(Cl)c1F (racemic) [Compound 16]
30: Kochia plant response rating (kochia (Kochia scoparia) [25]; 125 g ai/ha) | Plant response rating, Wheat ([10]; 500 g ai/ha) | Plant response rating, Corn (corn (Zea mays) [14]; 500 g ai/ha)
60: Plant response rating, Blackgrass ([29]; 500 g ai/ha)
80: Plant response rating, Foxtail, Giant ([20]; 125 g ai/ha) | Plant response rating, Foxtail, Giant ([20]; 500 g ai/ha)
50: Kochia plant response rating (kochia (Kochia scoparia) [25]; 500 g ai/ha)
20: Plant response rating, Ryegrass, Italian ([21]; 500 g ai/ha) | Plant response rating, Galium ([26]; 125 g ai/ha) | Plant response rating, Galium ([26]; 500 g ai/ha) | Plant response rating, Wheat ([10]; 125 g ai/ha) | Plant response rating, Kochia (kochia (Kochia scoparia) [28]; 500 g ai/ha) | Ryegrass, Italian plant response rating ([30]; 125 g ai/ha)
90: Barnyardgrass plant response rating ([1]; 500 g ai/ha) | Plant response rating, Barnyardgrass ([4]; 500 g ai/ha) | Foxtail, Giant plant response rating ([9]; 125 g ai/ha) | Foxtail, Giant plant response rating ([9]; 500 g ai/ha)
40: Plant response rating, Blackgrass ([29]; 125 g ai/ha) | Ryegrass, Italian plant response rating ([30]; 500 g ai/ha)
0: Plant response rating, Ryegrass, Italian ([21]; 125 g ai/ha) | Plant response rating ([22]; 31 g ai/ha) | Plant response rating ([22]; 62 g ai/ha) | Plant response rating ([22]; 125 g ai/ha) | Plant response rating ([22]; 250 g ai/ha) | Plant response rating ([23]; 31 g ai/ha) | Plant response rating ([23]; 62 g ai/ha) | Plant response rating ([23]; 125 g ai/ha) | Plant response rating ([23]; 250 g ai/ha) | Plant response rating (rice (Oryza sativa) [24]; 31 g ai/ha) | Plant response rating (rice (Oryza sativa) [24]; 62 g ai/ha) | Plant response rating (rice (Oryza sativa) [24]; 125 g ai/ha) | Plant response rating (rice (Oryza sativa) [24]; 250 g ai/ha) | Plant response rating (rice (Oryza sativa) [2]; 500 g ai/ha) | Plant response rating ([27]; 31 g ai/ha) | Plant response rating ([27]; 62 g ai/ha) | Plant response rating ([27]; 125 g ai/ha) | Plant response rating ([27]; 250 g ai/ha) | Plant response rating, Pigweed ([6]; 125 g ai/ha) | Plant response rating, Pigweed ([6]; 500 g ai/ha) | Plant response rating ([7]; 500 g ai/ha) | Plant response rating ([8]; 500 g ai/ha) | Plant response rating, Kochia (kochia (Kochia scoparia) [28]; 125 g ai/ha) | Plant response rating ([12]; 500 g ai/ha) | Plant response rating, Corn (corn (Zea mays) [14]; 125 g ai/ha) | Plant response rating, Ragweed ([31]; 125 g ai/ha) | Plant response rating, Ragweed ([31]; 500 g ai/ha) | Ragweed plant response rating ([32]; 125 g ai/ha) | Ragweed plant response rating ([32]; 500 g ai/ha) | Pigweed plant response rating ([19]; 125 g ai/ha) | Pigweed plant response rating ([19]; 500 g ai/ha)
70: Barnyardgrass plant response rating ([1]; 125 g ai/ha) | Plant response rating, Barnyardgrass ([4]; 125 g ai/ha)
